Data set [1] has as its system LuCaP35V (Castration Resistant) primary prostate cancer. As to the kind of experiment: LuCaP35V castration resistant primary prostate cancer model. The class given is in vivo. From the text: The effects of IPI-926 were examined following docetaxel chemotherapy in a model of castration resistant prostate cancer. Prostate cancer is known to be a highly desmoplastic cancer, and one that preferentially metastasizes to bone. Sonic hedgehog ligand is expressed in clinical specimens and primary xenograft models. […] FIG. 7 summarizes the effects of IPI-926 in LuCaP35V (Castration Resistant) primary prostate cancer model. Days of docetaxel and IPI-926 administration are indicated by the arrowheads at the indicated days post-implant. The following samples were tested: Vehicle control (administered orally once a day), 40 mg/kg of IPI-926 (administered orally once a day), docetaxel (administered intravenously Q14D for 28 days), or docetaxel (administered intravenously Q14D for 28 days) followed by 40 mg/kg of IPI-926, as shown in FIG. 7. […] Thus, IPI-926 can be useful as maintenance therapy in prostate cancer.

The subject of data set [2] is Gli1. As to the kind of experiment: Gli1 mRNA by RT-PCR in Ptc^C/C tumors. Format: in vivo, mouse. The note with it: for suppression of Gli1 levels vs vehicle: daily 20 mg/kg/dose; for reduction in Gli1 mRNA levels: single dose. As for the experimental part:
Pharmacodynamic activity of IPI-926 in Ptc^C/C tumors was confirmed by analysis of Gli1 mRNA by RT-PCR. Mice were treated daily with 20 mg/kg/dose IPI-926 for 2 days, 2 weeks or 6 weeks and tumor tissue isolated and snap frozen 24 hours after the last dose. Total RNA was extracted using the Qiagen RNeasy Plus Kit and converted to cDNA using the Taqman Reverse Transcription kit (ABI). Quantitative Real Time PCR was set up using Taqman Master Mix and run on the Applied Biosystems 7300HT Real-Time PCR (384-well qPCR) System. Taqman primers for mouse Gli1 and Gapdh controls were used (ABI). Data was analyzed using SDS2.3 software (ABI). All conditions were run in triplicate and normalized to mouse Gapdh controls. Expression of IPI-926 treated (n=3 per time point) samples were normalized to vehicle control (n=3 per time point) samples.
In initial studies in the Ptc^C/C mice intracranial pressures were sufficiently high in some mice that brainstem herniation into the spinal canal and subsequent death occurred by tipping the head back for gavage feeding. Pharmacodynamic studies were conducted with intraperitoneal (IP) drug injection as well as oral gavage to see whether the IP route offered a safe and effective alternative to gavage drug administration. Both oral and IP routes induced approximately 90% reduction in Gli1 mRNA levels (FIG. 14), so IP administration was used for all subsequent studies.

Data set [3] concerns Smoothened bearing the A1 point mutation. As to the kind of experiment: Shh pathway inhibition in Smo/Smo (SmoA1) mouse medulloblastoma. Format: in vivo. An excerpt:
Two mouse medulloblastoma models were considered for these studies. In the Smo/Smo model, the constitutively active Smoothened (SmoA1) transgene is driven by a fragment of the mouse NeuroD2 promoter (Hallahan et al., (2004) Cancer Research 64: 7794-7800). Over 90% of Smo/Smo mice develop subclinical, localized medulloblastomas by one month of age and they typically become symptomatic and moribund 3-5 months later (Hatton et al., (2008) Cancer Research 68: 1768-1776). In this model, Smoothened is activated by a W539L point mutation (SmoA1) in the seventh transmembrane domain (Xie et al. (1998) Nature 391: 90-92; Taipale et al., (2000) Nature 406:1005-1009). While this model is ideal for many pre-clinical medulloblastoma therapeutic trials, it was previously reported that the introduced SmoA1 point mutation reduced the affinity of cyclopamine for Smoothened in tissue culture cells (Taipale et al., (2000) Nature 406:1005-1009). Tests were performed to determine whether doses of IPI-926 that were effective in other mouse model studies were sufficient to block the Shh pathway in Smo/Smo mouse tumors. […] Therefore, a different medulloblastoma model was used.

For data set [4] the following is noted: mouse, in vivo. How it is done:
IPI-926 drug levels in tumor and brain samples were determined as described previously (Olive et al., (2009) Science 324: 1457-1461). Briefly, samples were homogenized in 4 volumes of CAN:PBS buffer and homogenized using a Geno/Grinder from SPEX CertiPrep (Metuchen, N.J.) for 2 minutes. Homogenates were then filtered using […] low binding hydrophilic multiscreen solvinert late (Millipore) and collected in a 96-well plate. The tissue filtrates were diluted 1:1 and IPI-926 levels were determined. Sample analysis was performed on an Agilent 1200 from Agilent Technologies (Santa Clara, Calif.) coupled with an API-4000 mass spectrometer from Applied Biosystems (Foster City, Calif.) for detection. Data were acquired and processed using the software Analyst 1.4.1 (Applied Biosystems). Sample concentrations, as measured by their peak area ratios (analyte divided by internal standard), were determined from the calibration curves.

Data set [5] addresses Pgp (Homo sapiens, UniProt P08183). As to the kind of experiment: Pgp substrate status. Format: in vitro ADME.
The subject of data set [6] is Hedgehog pathway in stromal cells. To be noted: after single administration; cited from earlier work.

Sequence of Pgp (P08183 whole entry): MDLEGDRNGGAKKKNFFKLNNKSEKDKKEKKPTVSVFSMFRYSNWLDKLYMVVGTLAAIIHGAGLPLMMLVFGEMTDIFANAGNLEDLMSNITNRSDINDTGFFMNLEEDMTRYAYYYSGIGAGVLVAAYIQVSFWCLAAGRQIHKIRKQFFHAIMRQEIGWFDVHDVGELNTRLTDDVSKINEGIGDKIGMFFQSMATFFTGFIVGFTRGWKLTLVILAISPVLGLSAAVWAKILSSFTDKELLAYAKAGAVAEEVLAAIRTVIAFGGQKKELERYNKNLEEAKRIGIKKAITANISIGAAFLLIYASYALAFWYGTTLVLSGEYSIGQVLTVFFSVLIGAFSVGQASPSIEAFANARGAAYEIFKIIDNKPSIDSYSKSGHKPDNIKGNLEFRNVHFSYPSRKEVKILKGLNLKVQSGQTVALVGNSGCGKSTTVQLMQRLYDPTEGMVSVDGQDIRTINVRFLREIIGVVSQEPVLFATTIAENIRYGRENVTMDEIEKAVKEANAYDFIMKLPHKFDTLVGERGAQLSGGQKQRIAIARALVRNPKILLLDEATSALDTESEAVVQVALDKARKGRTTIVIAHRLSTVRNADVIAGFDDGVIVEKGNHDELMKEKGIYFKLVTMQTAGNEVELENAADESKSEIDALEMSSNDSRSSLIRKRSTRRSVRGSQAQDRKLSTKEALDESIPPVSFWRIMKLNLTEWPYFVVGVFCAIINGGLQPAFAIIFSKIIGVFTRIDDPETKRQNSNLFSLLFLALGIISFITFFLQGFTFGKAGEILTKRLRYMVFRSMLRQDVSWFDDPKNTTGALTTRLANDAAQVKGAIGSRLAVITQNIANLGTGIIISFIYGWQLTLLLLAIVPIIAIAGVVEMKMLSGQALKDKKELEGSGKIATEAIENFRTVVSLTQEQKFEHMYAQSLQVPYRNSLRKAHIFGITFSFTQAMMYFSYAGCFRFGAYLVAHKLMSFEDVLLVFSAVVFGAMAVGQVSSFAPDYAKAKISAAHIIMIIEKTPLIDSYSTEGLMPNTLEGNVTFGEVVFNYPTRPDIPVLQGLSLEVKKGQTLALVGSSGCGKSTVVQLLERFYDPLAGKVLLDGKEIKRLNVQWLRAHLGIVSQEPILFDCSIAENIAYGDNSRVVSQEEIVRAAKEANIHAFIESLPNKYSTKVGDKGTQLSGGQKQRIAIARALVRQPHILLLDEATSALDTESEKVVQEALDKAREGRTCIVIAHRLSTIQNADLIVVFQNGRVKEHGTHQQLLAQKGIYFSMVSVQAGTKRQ

For `CC1=C2C[C@H]3[C@@H](CC[C@@H]4C[C@H](NS(C)(=O)=O)CC[C@@]43C)[C@@H]2CC[C@@]2(C1)O[C@@H]1C[C@H](C)CN[C@H]1[C@H]2C` [IPI-926], the “tumor volume, IPI-926 alone” value in data set [1] (40 mg/kg orally once a day) is given as “marked increase in tumor volume”. Also, the “tumor volume after cessation of docetaxel chemotherapy” value in data set [1] (docetaxel IV Q14D for 28 days followed by 40 mg/kg IPI-926) is reported as “prolonged duration of the tumor inhibition”. The “suppression of Gli1 levels vs vehicle” value in data set [2] (after 2 weeks of therapy) was found to be 60%; in data set [2] (after 6 weeks of therapy), 30%; in data set [2] (after 2 days of therapy), 90%. For the same molecule, the “reduction in Gli1 mRNA levels” value in data set [2] (intraperitoneal injection) and in data set [2] (oral gavage) was “approximately 90%” throughout. Further, the proliferation or apoptosis result in data set [3] (Smo/Smo mouse model) is on record as “no detectable effect”. In addition, the “expression of Gli1” value in data set [3] (Smo/Smo mouse tumors) is reported as “unaffected”. The “blood brain barrier penetration” value in data set [4] is given as “crossed the blood brain barrier”. In addition, the Pgp substrate entry in data set [5] is “Pgp substrate”. In data set [6], the “Hedgehog pathway inhibition in stromal cells” value was “rapid and sustained Hedgehog pathway inhibition”.

The values are drawn from patent US20120010229A1, “THERAPEUTIC REGIMENS FOR HEDGEHOG-ASSOCIATED CANCERS” (priority 2010, published 2012).
